The record followed here is PubChem BioAssay (NCI).

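Compound exposure: 48 hours, 5 concentrations, 96-well plates. The concentration for 50% growth inhibition is given as GI50. At the TGI there is no net growth.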

Test systems include EKVX NSCLC; HT29 colon; UACC-62 melanoma; OVCAR-5 ovarian; LOX IMVI melanoma; RXF 393 renal; SK-MEL-28 melanoma; KM12 colon; SW-620 colon; NCI-H226 lung.
What all share (test): growth of human tumour cells (NCI), 48 h

`O=C(Nc1ccc(Cl)cc1)c1cc2cc(F)ccc2cc1O`: the GI50 in the experiment with EKVX NSCLC was 2.62 µM; in the experiment with HT29 colon it was 3.67 µM; with UACC-62 melanoma, 0.622 µM; in the experiment with OVCAR-5 ovarian, 3.28 µM; in the experiment on LOX IMVI melanoma, 2.11 µM; in the experiment with RXF 393 renal it was 3 µM. In addition, the GI50 in the experiment on SK-MEL-28 melanoma is 1.75 µM; in the experiment with KM12 colon, 2.74 µM; in the experiment with SW-620 colon it was 2.49 µM; in the experiment on NCI-H226 lung it was 2.5 µM. For the same compound, the TGI in the experiment on EKVX NSCLC is 22.3 µM; in the experiment on HT29 colon, 40 µM; in the experiment with UACC-62 melanoma, 23.6 µM; in the experiment with OVCAR-5 ovarian it was > 100 µM; with LOX IMVI melanoma it was 10.7 µM; in the experiment with RXF 393 renal it was 16.1 µM. Further, the TGI was > 100 µM with SK-MEL-28 melanoma, > 100 µM with KM12 colon, > 100 µM in the experiment with SW-620 colon and 7.99 µM with NCI-H226 lung.
With `O=S1c2ccccc2N=C(c2ccc(Cl)cc2)CC1c1cccs1` (stereo not given), the TGI with EKVX NSCLC was > 100 µM; in the experiment with HT29 colon, 49.4 µM; in the experiment on UACC-62 melanoma, 64.1 µM; in the experiment with OVCAR-5 ovarian, 61.3 µM; in the experiment with LOX IMVI melanoma, 25.9 µM; in the experiment on RXF 393 renal it was 47.6 µM. In addition, the TGI was 38.4 µM in the experiment with SK-MEL-28 melanoma, 33.8 µM in the experiment with KM12 colon, 27.5 µM in the experiment on SW-620 colon and > 100 µM in the experiment on NCI-H226 lung.
In the case of `CNC(=O)c1cncc(/C=C/c2c(C)cccc2C)c1`, the GI50 in the experiment with EKVX NSCLC is > 25 µM; in the experiment on HT29 colon, 16.2 µM; with UACC-62 melanoma, > 22.5 µM; in the experiment with OVCAR-5 ovarian it was > 25 µM; in the experiment with LOX IMVI melanoma, 16.2 µM; in the experiment on RXF 393 renal, 13.4 µM. Further, the GI50 in the experiment with SK-MEL-28 melanoma, in the experiment with KM12 colon, with SW-620 colon and in the experiment on NCI-H226 lung was > 25 µM throughout. Also, the TGI in the experiment with EKVX NSCLC, in the experiment with HT29 colon, in the experiment with UACC-62 melanoma, in the experiment on OVCAR-5 ovarian, in the experiment on LOX IMVI melanoma and with RXF 393 renal was > 25 µM in each case. The TGI in the experiment with SK-MEL-28 melanoma, with KM12 colon, in the experiment on SW-620 colon and in the experiment on NCI-H226 lung was > 25 µM each time.
